Results: the NIST ThermoML archive (doi:10.1021/acs.jced.9b00436)
Values joined by “and” are separate entries in the source; they are usually repeats but may differ in a detail not shown here. Equal values may be shown once. ± gives the expanded uncertainty stated by the source.

Key:
[1] = an = ratio of the nth substance listed; details: 100 kPa, Liquid; for viscosity: Falling or rolling sphere viscometry; for speed of sound: Frequency=5 MHz, Single path-length method; for mass density: Vibrating tube method
[2] = 100 kPa, Liquid, Frequency=5 MHz, Single path-length method
[3] = xn = mol fraction of the nth substance listed; details: 308 K; 100 kPa; Liquid; Frequency=5 MHz; Single path-length method; x2 = 0.333

C[N+](C)(C)CCO.[Cl-] [choline chloride] + OCC(O)CO
[1], a2 = 2
Details	mass density [kg/m3]	speed of sound [m/s]	viscosity [mPa·s]
293 K	1194.3 ± 24	1987 ± 40	473 ± 190
298 K	1191.7 ± 24	1975 ± 40	364.4 ± 150
303 K	1188.5 ± 24	1963 ± 39	246.8 ± 100
308 K	1185.5 ± 24	1952 ± 39	193.8 ± 78
313 K	1182.7 ± 24	1941 ± 39	133.4 ± 54
318 K	1179.3 ± 24	1932 ± 39	110.4 ± 44
323 K	1177 ± 24	1923 ± 38	81.6 ± 33
328 K	1173.1 ± 24	1910 ± 38	70.2 ± 28
333 K	1171.3 ± 23	1900 ± 38	53.8 ± 22

C[N+](C)(C)CCO.[Cl-] [choline chloride] + OCCO
[1], a2 = 2
Details	mass density [kg/m3]	speed of sound [m/s]	viscosity [mPa·s]
293 K	1117.1 ± 22	1896 ± 38	50 ± 20
298 K	1114.5 ± 22	1882 ± 38	40.4 ± 16
303 K	1111.4 ± 22	1871 ± 37	33.6 ± 13
308 K	1108.6 ± 22	1860 ± 37	27.9 ± 11
313 K	1105.7 ± 22	1848 ± 37	23.6 ± 9.4
318 K	1102.6 ± 22	1837 ± 37	19.9 ± 8
323 K	1100.1 ± 22	1826 ± 37	17.2 ± 6.9
328 K	1096.7 ± 22	1813 ± 36	14.6 ± 5.8
333 K	1094.7 ± 22	1802 ± 36	12.8 ± 5.1

CCCCCCCCCC(=O)O [decanoic acid] + CCCCCCCCCCCCCC[P+](CCCCCC)(CCCCCC)CCCCCC.[Cl-]
[1], a1 = 2
Details	mass density [kg/m3]	speed of sound [m/s]	viscosity [mPa·s]
293 K	898.5 ± 18	1437 ± 29	346.3 ± 140
298 K	895.4 ± 18	1418 ± 29	260.5 ± 110
303 K	893.2 ± 18	1402 ± 28	197.8 ± 80
308 K	888.6 ± 18	1384 ± 28	151.6 ± 61
313 K	885.4 ± 18	1366 ± 28	117.9 ± 47
318 K	881.9 ± 18	1349 ± 27	93.7 ± 38
323 K	879.1 ± 18	1333 ± 27	76 ± 30
328 K	877.1 ± 18	1314 ± 27	62.8 ± 25
333 K	874.9 ± 18	1303 ± 26	52.8 ± 21

CCCCCCCCCCCCCCCC [hexadecane]
[2]
Details	speed of sound [m/s]
293 K	1356 ± 27
298 K	1340 ± 27
303 K	1325 ± 27
313 K	1287 ± 26
318 K	1268 ± 25
323 K	1248 ± 25
328 K	1227 ± 25
333 K	1210 ± 24

CCCCCCCC[N+](C)(CCCCCCCC)CCCCCCCC.[Br-] [methyltrioctylammonium bromide] + CCCCCCCCCC(=O)O
[1], a2 = 2
Details	mass density [kg/m3]	speed of sound [m/s]	viscosity [mPa·s]
293 K	945.4 ± 19	1406 ± 28	806 ± 330
298 K	942.2 ± 19	1393 ± 28	572.6 ± 230
303 K	939.9 ± 19	1375 ± 28	411.4 ± 170
308 K	935.2 ± 19	1357 ± 27	305.2 ± 120
313 K	931.9 ± 19	1341 ± 27	226.2 ± 91
318 K	928.3 ± 19	1326 ± 27	171.5 ± 69
323 K	925.3 ± 18	1312 ± 26	132.4 ± 53
328 K	923.1 ± 18	1297 ± 26	104.5 ± 42
333 K	920.8 ± 18	1283 ± 26	83.7 ± 34

O=C(O)CC(=O)O [propanedioic acid] + C[N+](C)(C)CCO.[Cl-]
[1]
Details	mass density, a1 = 1 [kg/m3]	speed of sound, a1 = 2 [m/s]	viscosity, a1 = 2 [mPa·s]
293 K	1185.1 ± 24	–	–
298 K	1182.1 ± 24	–	–
303 K	1178.6 ± 24	1876 ± 38	1128.6 ± 460
308 K	1175.6 ± 24	1863 ± 37	812.9 ± 330
313 K	1172.3 ± 24	1851 ± 37	597.3 ± 240
318 K	1169.1 ± 23	1838 ± 37	446.1 ± 180
323 K	1166 ± 23	1825 ± 37	342.3 ± 140
328 K	1162.7 ± 23	1812 ± 36	–
333 K	1160.3 ± 23	1799 ± 36	–

CCCCCCCC[N+](CCCCCCCC)(CCCCCCCC)CCCCCCCC.[Br-] [tetraoctylammonium bromide] + CCCCCCCCCC(=O)O
[1], a2 = 2
Details	mass density [kg/m3]	speed of sound [m/s]	viscosity [mPa·s]
293 K	933.7 ± 19	1416 ± 28	908.9 ± 370
298 K	930.6 ± 19	1402 ± 28	648 ± 260
303 K	928.4 ± 19	1382 ± 28	472 ± 190
308 K	923.7 ± 18	1365 ± 27	350 ± 140
313 K	920.5 ± 18	1347 ± 27	264.3 ± 110
318 K	916.9 ± 18	1331 ± 27	201.1 ± 81
323 K	913.9 ± 18	1317 ± 26	156.9 ± 63
328 K	911.8 ± 18	1301 ± 26	123.4 ± 50
333 K	909.5 ± 18	1287 ± 26	98.4 ± 39

NC(N)=O [urea] + C[N+](C)(C)CCO.[Cl-]
[1], a1 = 2
Details	mass density [kg/m3]	speed of sound	viscosity [mPa·s]
293 K	1200.1 ± 24	2045 ± 41 m/s	1372 ± 570
298 K	1198.1 ± 24	2035 ± 41 m/s	985.1 ± 400
303 K	1194.5 ± 24	2027 ± 41 m/s	527.3 ± 210
308 K	1191.7 ± 24	2020 ± 40 m/s and 2018 ± 40 m/s	397.2 ± 160
313 K	1188.7 ± 24	2009 ± 40 m/s	238.1 ± 96
318 K	1185.5 ± 24	2002 ± 40 m/s	181.6 ± 73
323 K	1183.1 ± 24	1992 ± 40 m/s	119.8 ± 48
328 K	1179.2 ± 24	1983 ± 40 m/s	98.2 ± 39
333 K	1177.3 ± 24	1976 ± 40 m/s	68.6 ± 28

Details	speed of sound [m/s]
[3]	2016 ± 40

O [water]
[2]
Details	speed of sound [m/s]
298 K	1501 ± 30
303 K	1511.5 ± 30
313 K	1527.5 ± 31
318 K	1535 ± 31
323 K	1542 ± 31
328 K	1547 ± 31
333 K	1550 ± 31
